Test results taken from PubChem BioAssay AID248 (DTP/NCI, 2004).
Where “and” joins values, the source holds several entries; their conditions need not be identical. Identical values can stand only once. Toxic doses and inconclusive results are not listed. Rule as the data show it: active = T/C of 150% or more; inactive = T/C below 125%.

System: L1210 leukemia ip in BDF1 mice, survival T/C
Experiment: NCI In Vivo Anticancer Drug Screen. Data for tumor model L1210 Leukemia (intraperitoneal) in B6D2F1 (BDF1) mice
Conditions: endpoint: mean survival time, higher = longer survival
Method in brief: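 Read-out is survival time, reported as the treated-group measurement over the vehicle-control measurement.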

[1] = dose: 50.0 mg/kg/injection, schedule: Q01DX001 (ip), vehicle: saline
[2] = dose: 100.0 mg/kg/injection, schedule: Q01DX001 (ip), vehicle: carboxymethylcellulose (CMC)
[3] = dose: 100.0 mg/kg/injection, schedule: Q01DX001 (ip), vehicle: saline
[4] = dose: 200.0 mg/kg/injection, schedule: Q01DX001 (ip), vehicle: carboxymethylcellulose (CMC)
[5] = dose: 200.0 mg/kg/injection, schedule: Q01DX001 (ip), vehicle: saline
[6] = dose: 200.0 mg/kg/injection, schedule: Q04DX003 (ip), vehicle: saline with Tween-80
[7] = dose: 400.0 mg/kg/injection, schedule: Q01DX001 (ip), vehicle: carboxymethylcellulose (CMC)
[8] = dose: 400.0 mg/kg/injection, schedule: Q01DX001 (ip), vehicle: saline
[9] = dose: 100.0 mg/kg/injection, schedule: Q04DX003 (ip), vehicle: saline
[10] = dose: 200.0 mg/kg/injection, schedule: Q04DX003 (ip), vehicle: saline
[11] = dose: 400.0 mg/kg/injection, schedule: Q04DX003 (ip), vehicle: saline
[12] = dose: 75.0 mg/kg/injection, schedule: Q01DX001 (ip), vehicle: saline

Measured: T/C

C=CC(=O)O
inactive: dose: 0.5 mg/kg/injection, schedule: Q01DX009 (ip), vehicle: saline 101 % of control | dose: 1.0 mg/kg/injection, schedule: Q01DX009 (ip), vehicle: saline 101 % of control | dose: 1.56 mg/kg/injection, schedule: Q01DX009 (ip), vehicle: acetone 104 % of control | dose: 2.0 mg/kg/injection, schedule: Q01DX009 (ip), vehicle: saline 108 % of control | dose: 3.12 mg/kg/injection, schedule: Q01DX009 (ip), vehicle: acetone 102 % of control | dose: 4.0 mg/kg/injection, schedule: Q01DX009 (ip), vehicle: saline 116 % of control | dose: 5.0 mg/kg/injection, schedule: Q01DX001 (ip), vehicle: saline 102 % of control and 93 % of control | dose: 6.25 mg/kg/injection, schedule: Q01DX009 (ip), vehicle: acetone 88 % of control | dose: 10.0 mg/kg/injection, schedule: Q01DX001 (ip), vehicle: saline 108 % of control and 100 % of control | dose: 20.0 mg/kg/injection, schedule: Q01DX001 (ip), vehicle: saline 101 % of control | dose: 25.0 mg/kg/injection, schedule: Q04DX003 (ip), vehicle: Klucel (hydroxypropylcellulose) (HPC) 90 % of control | dose: 50.0 mg/kg/injection, schedule: Q01DX001 (ip), vehicle: carboxymethylcellulose (CMC) 88 % of control and 106 % of control | [1] 95 % of control | [2] 86 % of control and 95 % of control | [3] 90 % of control and 88 % of control | dose: 100.0 mg/kg/injection, schedule: Q04DX003 (ip), vehicle: Klucel (hydroxypropylcellulose) (HPC) 89 % of control | [4] 93 % of control and 101 % of control | [5] 93 % of control and 88 % of control | [6] 87 % of control | [7] 88 % of control and 106 % of control | [8] 101 % of control and 95 % of control and 102 % of control | dose: 320.0 micrograms/kg/injection, schedule: Q01DX009 (ip), vehicle: saline 96 % of control | dose: 480.0 micrograms/kg/injection, schedule: Q01DX009 (ip), vehicle: saline 102 % of control | dose: 730.0 micrograms/kg/injection, schedule: Q01DX009 (ip), vehicle: saline 106 % of control | dose: 1100.0 micrograms/kg/injection, schedule: Q01DX009 (ip), vehicle: saline 107 % of control

Fc1c(Cl)c(F)c(Cl)c(F)c1Cl
inactive: [2] 94 % of control | [4] 97 % of control | [7] 94 % of control

COc1cc(Br)c(CCBr)cc1OC
inactive: dose: 25.0 mg/kg/injection, schedule: Q01DX009 (ip), vehicle: Klucel (hydroxypropylcellulose) (HPC) 98 % of control | dose: 50.0 mg/kg/injection, schedule: Q01DX009 (ip), vehicle: Klucel (hydroxypropylcellulose) (HPC) 94 % of control | dose: 100.0 mg/kg/injection, schedule: Q01DX009 (ip), vehicle: Klucel (hydroxypropylcellulose) (HPC) 100 % of control | dose: 100.0 mg/kg/injection, schedule: Q04DX003 (ip), vehicle: saline with Tween-80 96 % of control | [6] 94 % of control | dose: 400.0 mg/kg/injection, schedule: Q04DX003 (ip), vehicle: saline with Tween-80 104 % of control

CN1OC(C#N)(C#N)C(C#N)(C#N)C1c1ccccc1 (stereo not drawn)
inactive: dose: 100.0 mg/kg/injection, schedule: Q01DX009 (ip), vehicle: saline 103 % of control | [9] 101 % of control | dose: 200.0 mg/kg/injection, schedule: Q01DX009 (ip), vehicle: saline 106 % of control | [10] 89 % of control | dose: 400.0 mg/kg/injection, schedule: Q01DX009 (ip), vehicle: saline 101 % of control | [11] 109 % of control

ClC1CCCCCCCCC1
inactive: [1] 122 % of control | [3] 95 % of control | [8] 92 % of control

CC(C)=NOC(=O)N(C)C
inactive: [3] 93 % of control | [5] 96 % of control | [8] 91 % of control

O=C1OCCN1CCO
inactive: [9] 97 % of control | [10] 102 % of control | [11] 108 % of control

O=c1[nH]c2cnccc2c(=O)n1O
inactive: dose: 100.0 mg/kg/injection, schedule: Q01DX009 (ip), vehicle: saline with Tween-80 102 % of control | dose: 200.0 mg/kg/injection, schedule: Q01DX009 (ip), vehicle: saline with Tween-80 93 % of control | dose: 400.0 mg/kg/injection, schedule: Q01DX009 (ip), vehicle: saline with Tween-80 104 % of control

Oc1ccc(O)c(CCCCCc2cc(O)ccc2O)c1
inactive: dose: 25.0 mg/kg/injection, schedule: Q01DX009 (ip), vehicle: other 106 % of control | dose: 50.0 mg/kg/injection, schedule: Q01DX009 (ip), vehicle: other 98 % of control | dose: 100.0 mg/kg/injection, schedule: Q01DX001 (ip), vehicle: saline with Tween-80 104 % of control | dose: 100.0 mg/kg/injection, schedule: Q01DX009 (ip), vehicle: other 97 % of control | dose: 200.0 mg/kg/injection, schedule: Q01DX001 (ip), vehicle: saline with Tween-80 100 % of control | dose: 400.0 mg/kg/injection, schedule: Q01DX001 (ip), vehicle: saline with Tween-80 100 % of control

O=[N+]([O-])c1ccccc1N=Nc1c(O)[nH]c2ccc(S(=O)(=O)O)cc12
inactive: dose: 100.0 mg/kg/injection, schedule: Q01DX001 (ip), vehicle: acetone 94 % of control | dose: 200.0 mg/kg/injection, schedule: Q01DX001 (ip), vehicle: acetone 92 % of control | dose: 400.0 mg/kg/injection, schedule: Q01DX001 (ip), vehicle: acetone 100 % of control

Cc1ccc(S(=O)(=O)N(CCCc2c(C)nc(N)[nH]c2=O)Cc2ccc([N+](=O)[O-])cc2)cc1
inactive: dose: 75.0 mg/kg/injection, schedule: Q01DX001 (ip), vehicle: Klucel (hydroxypropylcellulose) (HPC) 102 % of control | dose: 150.0 mg/kg/injection, schedule: Q01DX001 (ip), vehicle: Klucel (hydroxypropylcellulose) (HPC) 97 % of control | dose: 300.0 mg/kg/injection, schedule: Q01DX001 (ip), vehicle: Klucel (hydroxypropylcellulose) (HPC) 103 % of control

CCOC(=O)/C(C#N)=C1\C=C(NCc2ccccc2)CCC1
inactive: [3] 89 % of control | [5] 96 % of control | [8] 92 % of control

Cc1cccc(Nc2nc(N)nc(N)c2N=O)c1C
inactive: dose: 100.0 mg/kg/injection, schedule: Q01DX Z (ip), vehicle: methylcellulose (MC) 96 % of control | dose: 200.0 mg/kg/injection, schedule: Q01DX Z (ip), vehicle: methylcellulose (MC) 102 % of control

O=C1c2ccccc2-c2ccccc2C1(Cl)Cl
inactive: [12] 105 % of control

CN(C)CCCCc1cn(-c2ccccc2)c2ccccc12
inactive: dose: 12.5 mg/kg/injection, schedule: Q01DX009 (ip), vehicle: saline 100 % of control | dose: 25.0 mg/kg/injection, schedule: Q01DX009 (ip), vehicle: saline 93 % of control | dose: 25.0 mg/kg/injection, schedule: Q04DX003 (ip), vehicle: saline 102 % of control | dose: 30.0 mg/kg/injection, schedule: Q01DX015 (ip), vehicle: saline 86 % of control | dose: 50.0 mg/kg/injection, schedule: Q01DX009 (ip), vehicle: saline 107 % of control | dose: 50.0 mg/kg/injection, schedule: Q04DX003 (ip), vehicle: saline 103 % of control

C=CC[S][Pb]([c]1ccccc1)([c]1ccccc1)[c]1ccccc1
inactive: dose: 3.0 mg/kg/injection, schedule: Q01DX009 (ip), vehicle: Klucel (hydroxypropylcellulose) (HPC) 106 % of control | dose: 6.0 mg/kg/injection, schedule: Q01DX009 (ip), vehicle: Klucel (hydroxypropylcellulose) (HPC) 90 % of control | dose: 12.5 mg/kg/injection, schedule: Q04DX002 (ip), vehicle: Klucel (hydroxypropylcellulose) (HPC) 103 % of control | dose: 25.0 mg/kg/injection, schedule: Q04DX002 (ip), vehicle: Klucel (hydroxypropylcellulose) (HPC) 91 % of control

N#C/C(=C(/Cc1ccc(F)cc1)NP(=O)(c1ccccc1)c1ccccc1)c1ccc(F)cc1
inactive: dose: 100.0 mg/kg/injection, schedule: Q01DX001 (ip), vehicle: steriod suspending solution 101 % of control | dose: 200.0 mg/kg/injection, schedule: Q01DX001 (ip), vehicle: steriod suspending solution 90 % of control

O=[N+]([O-])c1ccc(Oc2c(Cl)cc(Cl)cc2Cl)c([N+](=O)[O-])c1
inactive: dose: 222.0 mg/kg/injection, schedule: Q01DX Z (ip), vehicle: methylcellulose (MC) 103 % of control | dose: 333.0 mg/kg/injection, schedule: Q01DX Z (ip), vehicle: methylcellulose (MC) 105 % of control | dose: 500.0 mg/kg/injection, schedule: Q01DX Z (ip), vehicle: methylcellulose (MC) 101 % of control

Cc1ccc(S(=O)(=O)N(CC2OCC3OC(C)(C)OC23)N=O)cc1 (stereo not drawn)
inactive: [12] 100 % of control | dose: 150.0 mg/kg/injection, schedule: Q01DX001 (ip), vehicle: saline 98 % of control | dose: 300.0 mg/kg/injection, schedule: Q01DX001 (ip), vehicle: saline 98 % of control
